The results in this text go back to US20040254371A1, “New benzothiazine and benzothiadiazine compounds” (priority 2003, published 2004).

This experiment has as its system AMPA receptors. Description: Excitatory currents induced by AMPA in Xenopus oocytes (voltage-clamp). Format: cell-based. The settings on record: Xenopus oocytes injected with rat cerebral cortex poly(A+) mRNA, AMPA 10 μM, 20-24° C. As for the experimental part: Study of the excitatory currents induced by AMPA in Xenopus oocytes
mRNA's are prepared from cerebral cortex of male Wistar rats by the guanidinium thiocyanate/phenol/chloroform method. The poly (A^+) mRNA's are isolated by chromatography on oligo-dT cellulose and injected at a level of 50 ng per oocyte. The oocytes are incubated for 2 to 3 days at 18° C. to permit expression of the receptors and are then stored at 8-10° C.
Electrophysiological recording is carried out in a Plexiglass® chamber at 20-24° C. in OR2 medium (J. Exp. Zool., 1973, 184, 321-334) by the “voltage-clamp” method using two electrodes, with a third electrode placed in the bath serving as reference.
All the compounds are applied via the incubation medium and the electric current is measured at the end of the application period. AMPA is used in a concentration of 10 μM. For each compound studied, the concentration that doubles (EC2X) or quintuples (EC5X) the intensity of the current induced by AMPA alone (5 to 50 nA) is determined.
For the molecule `O=S1(=O)NC2CCCN2c2ccc(Oc3cccc(-c4cnco4)c3)cc21` (stereo not drawn) [Example 18, 7-[3-(1,3-Oxazol-5-yl)phenoxy]-2,3,3a,4-tetrahydro-1H-pyrrolo-[2,1-c][1,2,4]benzothiadiazine 5,5-dioxide], the “EC2X (concentration that doubles the intensity of the current induced by AMPA alone)” value (“EC2X” below) was 0.66 µM and the “EC5X (concentration that quintuples the intensity of the current induced by AMPA alone)” value (“EC5X” below) amounted to 4 µM.

In the case of `O=S1(=O)NC2CCCN2c2ccc(Oc3cccc(-c4nnn[nH]4)c3)cc21` (stereo not drawn) [Example 1, 7-[3-(1H-Tetrazol-5-yl)phenoxy]-2,3,3a,4-tetrahydro-1H-pyrrolo-[2,1-c][1,2,4]benzothiadiazine 5,5-dioxide], the “EC2X” value stood at 0.2 µM and the “EC5X” value is 0.8 µM.

Consider `O=S1(=O)NC2CCCN2c2ccc(Oc3cccc(-c4ccoc4)c3)cc21` (stereo not drawn) [Example 17, 7-[3-(3-Furyl)phenoxy]-2,3,3a,4-tetrahydro-1H-pyrrolo[2,1-c][1,2,4]benzothiadiazine 5,5-dioxide], for which the “EC2X” value was determined as 4.5 µM and the “EC5X” value is 11.5 µM.
